Measurements published in US20130053243A1, “PLANTS HAVING INCREASED TOLERANCE TO HERBICIDES” (BASF SE, priority 2010, published 2013).

Experiments:
[1] = molecular target: T1, Arabidopsis HPPD variant Q293N (Arabidopsis thaliana, UniProt P93836, Q293N); test: HPPD activity assay, mutant enzyme; assay type: biochemical
T1 construct: His6 (N); made in house; host or cells: E. coli BL21 (DE3)
Description: (§1) HPPD produces homogentisic acid and CO2 from 4-hydroxyphenylpyruvate (4-HPP) and O2. The activity assay for HPPD is based on the analysis of homogentisic acid by reversed phase HPLC.
(§2) The assay mixture can contain 150 mM potassium phosphate buffer pH 7.0, 50 mM L-ascorbic acid, 1 μM FeSO4 and 7 μg of purified enzyme in a total volume of 1 ml.
(§3) Inhibitors are dissolved in DMSO (dimethylsulfoxide) to a concentration of 20 mM or 0.5 mM, respectively. From this stock solution serial five-fold dilutions are prepared in DMSO, which are used in the assay. The respective inhibitor solution accounts for 1% of the assay volume. Thus, final inhibitor concentrations range from 200 μM to 2.5 nM or from 5 μM to 63 pM, respectively.
(§4) After a preincubation of 30 min the reaction is started by adding 4-HPP to a final concentration of 0.1 mM. The reaction is allowed to proceed for 120 min at room temperature. The reaction is stopped by addition of 100 μl of 4.5 M phosphoric acid.
(§5) The sample is extracted on an Oasis® HLB cartridge 3 cc/60 mg (Waters) that was preequilibrated with 63 mM phosphoric acid. L-ascorbic acid is washed out with 3 ml of 63 mM phosphoric acid. Homogentisate is eluted with 1 ml of a 1:1 mixture of 63 mM phosphoric acid and methanol (w/w).
(§6) 10 μl of the eluate is analyzed by reversed phase HPLC on a Symmetry® C18 column (particle size 3.5 μm, dimensions 4.6×100 mm; Waters) using 5 mM H3PO4/15% ethanol (w/w) as an eluent.
(§7) Homogentisic acid is detected electrochemically and quantified by measuring peak areas (Empower software; Waters).
(§8) Activities are normalized by setting the uninhibited enzyme activity to 100%. IC50 values are calculated using non-linear regression.
(§9) The assay mixture can contain 150 mM potassium phosphate buffer pH 7.0, 50 mM L-ascorbic acid, 100 μM Catalase (Sigma-Aldrich), 1 μM FeSO4 and 0.2 units of purified HPPD enzyme in a total volume of 505 μl. 1 unit is defined as the amount of enzyme that is required to produce 1 nmol of HGA per minute at 20° C.
(§10) After a preincubation of 30 min the reaction is started by adding 4-HPP to a final concentration of 0.05 mM. The reaction is allowed to proceed for 45 min at room temperature. The reaction is stopped by the addition of 50 μl of 4.5 M phosphoric acid. The sample is filtered using a […] pore size PVDF filtration device.
(§11) 5 μl of the cleared sample is analyzed on an Atlantis T3 column (particle size 3 μm, dimensions 3×50 mm; Waters) by isocratic elution using 90% 10 mM NaH2PO4 pH 2.2, 10% methanol (v/v).
(§12) HGA is detected electrochemically at 750 mV (mode: DC; polarity: positive) and quantified by integrating peak areas (Empower software; Waters).
(§13) Inhibitors are dissolved in DMSO (dimethylsulfoxide) to a concentration of 0.5 mM. From this stock solution serial five-fold dilutions are prepared in DMSO, which are used in the assay. The respective inhibitor solution accounts for 1% of the assay volume. Thus, final inhibitor concentrations range from 5 μM to 320 pM, respectively. Activities are normalized by setting the uninhibited enzyme activity to 100%. IC50 values are calculated using non-linear regression.
(§14) Purified, mutant HPPD enzymes are obtained by the methods described above. Dose response and kinetic measurements are carried out using the described HPPD activity assay. Apparent michaelis constants (Km) and maximal reaction velocities (Vmax) are calculated by non-linear regression with the software GraphPad Prism 5 (GraphPad Software, La Jolla, USA) using a substrate inhibition model. Apparent kcat values are calculated from Vmax assuming 100% purity of the enzyme preparation. Weighted means (by standard error) of Km and IC50 values are calculated from at least three independent experiments. The Cheng-Prusoff equation for competitive inhibition (Cheng, Y. C.; Prusoff, W. H. Biochem Pharmacol 1973, 22, 3099-3108) is used to calculate dissociation constants (Ki). Examples of the data obtained are depicted in Table 13.

[2] = molecular target: T2, Arabidopsis HPPD variant I393L (Arabidopsis thaliana, UniProt P93836, I393L); test: HPPD activity assay, mutant enzyme; assay type: biochemical
T2 construct: His6 (N); made in house; host or cells: E. coli BL21 (DE3)
T2 sequence (P93836 whole entry I393L): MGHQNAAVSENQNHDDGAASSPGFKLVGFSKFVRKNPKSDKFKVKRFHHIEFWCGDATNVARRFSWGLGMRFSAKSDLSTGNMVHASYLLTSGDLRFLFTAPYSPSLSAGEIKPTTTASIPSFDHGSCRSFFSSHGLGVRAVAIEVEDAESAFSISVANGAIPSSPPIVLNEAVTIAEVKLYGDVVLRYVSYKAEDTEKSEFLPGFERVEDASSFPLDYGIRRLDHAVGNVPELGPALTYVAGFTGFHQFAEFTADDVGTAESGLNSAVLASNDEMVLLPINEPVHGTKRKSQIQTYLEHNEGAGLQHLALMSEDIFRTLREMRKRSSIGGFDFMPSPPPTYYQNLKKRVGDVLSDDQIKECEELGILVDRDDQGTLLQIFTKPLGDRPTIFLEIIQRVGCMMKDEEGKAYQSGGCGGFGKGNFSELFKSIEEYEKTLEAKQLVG
Description: as §1, §2, §3, §4, §5, §6, §7, §8, §9, §10, §11, §12, §13, §14

[3] = molecular target: T3, Arabidopsis HPPD variant Q293H (Arabidopsis thaliana, UniProt P93836, Q293H); test: HPPD activity assay, mutant enzyme; assay type: biochemical
T3 construct: His6 (N); made in house; host or cells: E. coli BL21 (DE3)
T3 sequence (P93836 whole entry Q293H): as the sequence (P93836 whole entry I393L) above, with Q293H, L393I counted along it
Description: as §1, §2, §3, §4, §5, §6, §7, §8, §9, §10, §11, §12, §13, §14

[4] = molecular target: T4, Arabidopsis HPPD variant P336A E363Q (Arabidopsis thaliana, UniProt P93836, E363Q/P336A); test: HPPD activity assay, mutant enzyme; assay type: biochemical
T4 construct: His6 (N); made in house; host or cells: E. coli BL21 (DE3)
T4 sequence (P93836 whole entry P336A/E363Q): as the sequence (P93836 whole entry I393L) above, with P336A, E363Q, L393I counted along it
Description: as §1, §2, §3, §4, §5, §6, §7, §8, §9, §10, §11, §12, §13, §14

Chlamydomonas HPPD2 = Chlamydomonas HPPD2 (Chlamydomonas reinhardtii, UniProt A0A2K3DET5); test: HPPD activity assay, wildtype enzyme; assay type: biochemical; conditions: calculated from IC50 with Cheng-Prusoff equation, read-out: dissociation constant Ki
Chain of Chlamydomonas HPPD2 (A0A2K3DET5 entry or part of it): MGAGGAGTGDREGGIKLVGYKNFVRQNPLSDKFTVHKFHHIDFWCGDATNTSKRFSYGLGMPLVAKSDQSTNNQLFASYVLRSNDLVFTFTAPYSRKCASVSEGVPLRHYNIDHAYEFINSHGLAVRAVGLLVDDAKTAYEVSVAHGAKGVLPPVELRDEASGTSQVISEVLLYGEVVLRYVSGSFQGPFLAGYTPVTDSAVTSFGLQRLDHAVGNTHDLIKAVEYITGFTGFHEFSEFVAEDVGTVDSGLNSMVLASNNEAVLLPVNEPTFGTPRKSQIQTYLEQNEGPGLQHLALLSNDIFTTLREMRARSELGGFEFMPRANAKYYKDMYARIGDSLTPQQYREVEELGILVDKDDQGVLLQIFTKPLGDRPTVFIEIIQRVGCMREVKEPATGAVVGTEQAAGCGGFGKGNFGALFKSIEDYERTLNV
Description: as §1, §2
Inhibitors are dissolved in DMSO (dimethylsulfoxide) to a concentration of 20 mM or 0.5 mM, respectively. From this stock solution serial five-fold dilutions are prepared in DMSO, which are used in the assay. The respective inhibitor solution accounts for 1% of the assay volume. […]
as §6, §7
Activities are normalized by setting the uninhibited enzyme activity to 100%. IC50 values are calculated using non-linear regression. […]
as §11
HGA is detected electrochemically at 750 mV (mode: DC; polarity: positive) and quantified by integrating peak areas (Empower software; Waters). […]

C. reinhardtii (CC-503) = test: C. reinhardtii growth inhibition by HPPD inhibiting herbicides; assay type: cell-based, Chlamydomonas reinhardtii
Text: Bleaching herbicides with a mode of action in plastoquinone or tocopherol biosynthesis can inhibit algae growth (Tables 14 and 15). These effects can be partly reversed by intermediates of homogentisic acid biosynthesis (Table 14). To generate mutations conferring “coumarone-derivative herbicide” resistance in HPPD or HST genes, chemical or UV mutagenesis can be used. Especially unicellular organisms like Chlamydomonas reinhardtii or Scenedesmus obliquus are useful for identifying dominant mutations in herbicide resistance.
Algae cells of Chlamydomonas reinhardtii strains CC-503 and CC-1691 (Duke University, Durham, USA) are propagated in TAP medium (Gorman and Levine (1965) PNAS 54: 1665-1669) by constant shaking at 100 rpm, 22° C. and 30 μmol Phot*m^−2*[…] light illumination. Scenedesmus obliquus (University of Gottingen, Germany) are propagated in algae medium as described (Boger and Sandmann, (1993) In: Target assays for modern herbicides and related phytotoxic compounds, Lewis Publishers) under same culturing conditions as mentioned for Chlamydomonas. Compound screening is performed at 450 μmol Phot*m^−2*[…] illumination.

T1 sequence (P93836 whole entry Q293N): as the sequence (P93836 whole entry I393L) above, with Q293N, L393I counted along it

`CC1=NOC(c2c(Cl)ccc(C3=C(O)c4ncccc4N(CC(F)F)S3(=O)=O)c2Cl)C1` (centres unmarked) [Inhibitor 1, 3-[2,4-dichloro-3-(3-methyl-4,5-dihydroisoxazol-5-yl)phenyl]-1-(2,2-difluoroethyl)-2,2-dioxo-pyrido[3,2-c]thiazin-4-ol] gave a Ki [1] of 41 nM, a Ki [2] of 21 nM and a Ki [3] of 23 nM. For the same compound, the Ki [4] was 13 nM and the Ki (Chlamydomonas HPPD2) was 8 nM.

For `Cc1c(C(=O)c2cnn(C)c2O)ccc(S(C)(=O)=O)c1C1=NOCC1` [Topramezone, reference compound], the “Growth inihibition [%] C. reinhardtii (CC-503)” value (C. reinhardtii (CC-503); c 1 * 10^−4 M) was 100%, the “Growth inihibition [%] C. reinhardtii (CC-503) + Homogentisic acid” value (C. reinhardtii (CC-503); c 1 * 10^−4 M) was 80% and the “Growth inihibition [%] C. reinhardtii (CC-503)” value (C. reinhardtii (CC-503); c 5 * 10^−4 M) was 100%. The “Growth inihibition [%] C. reinhardtii (CC-503) + Homogentisic acid” value (C. reinhardtii (CC-503); c 5 * 10^−4 M) was 100%, the Ki [1] was 36 nM and the Ki [3] was 14 nM.
